Test results from patent US20170050957A1, “4-AMINO-6-(HETEROCYCLIC)PICOLINATES AND 6-AMINO-2-(HETEROCYCLIC)PYRIMIDINE-4-CARBOXYLATES AND THEIR USE AS HERBICIDES” (Dow AgroSciences LLC, priority 2013, published 2017).
Like-named read-outs stand apart in the source and are kept apart here.

Legend:
[1] = test system: Key Broadleaf Weed and Crop Species; assay: Post-emergent Test II herbicidal activity (Table 15); type: in vivo; conditions: post-emergence, 336 h, 14 d; for pest or weed control at 35 g/ha: 35 g ai/ha; for pest or weed control at 70 g/ha: 70 g ai/ha; for pest or weed control at 140 g/ha: 140 g ai/ha
Procedure, shortened: (§1)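 Visual injury rating (0 = none, 100% = complete kill) made 14 d after treatment, relative to untreated plants. Compounds in an acetone/DMSO/aqueous crop-oil/surfactant spray, at top rate and serial 1/2×-1/16× rates, were applied at 187 L/ha overhead to first-second true leaf plants raised 7-21 d in greenhouse.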

[2] = test system: Key Grass and Sedge Weeds as well as Grass Crops; assay: Post-emergent Test II herbicidal activity (Table 16); type: in vivo; conditions: post-emergence, 336 h, 14 days after application; for pest or weed control at 35 g/ha: 35 g ai/ha; for pest or weed control at 70 g/ha: 70 g ai/ha; for pest or weed control at 140 g/ha: 140 g ai/ha
Procedure, shortened: as §1

[3] = Abutilon theophrasti, velvetleaf (Abutilon theophrasti), read-out: Visual Growth Reduction (%) 14 Days After Application, ABUTH
[4] = Amaranthus retroflexus, redroot pigweed (Amaranthus retroflexus), read-out: Visual Growth Reduction (%) 14 Days After Application, AMARE
[5] = Brassica napus, oilseed rape, canola (Brassica napus), read-out: Visual Growth Reduction (%) 14 Days After Application, BRSNN
[6] = Chenopodium album, lambsquarters (Chenopodium album), read-out: Visual Growth Reduction (%) 14 Days After Application, CHEAL
[7] = Euphorbia heterophylla, wild poinsettia (Euphorbia heterophylla), read-out: Visual Growth Reduction (%) 14 Days After Application, EPHHL
[8] = Helianthus annuus, sunflower (Helianthus annuus), read-out: Visual Growth Reduction (%) 14 Days After Application, HELAN
[9] = Cyperus esculentus, yellow nutsedge (Cyperus esculentus), read-out: Visual Growth Reduction (%) 14 Days After Application CYPES
[10] = Echinochloa crus-galli, barnyardgrass (Echinochloa crus-galli), read-out: Visual Growth Reduction (%) 14 Days After Application ECHCG
[11] = Oryza sativa, rice (Oryza sativa), read-out: Visual Growth Reduction (%) 14 Days After Application ORYSA
[12] = Setaria faberi, giant foxtail (Setaria faberi), read-out: Visual Growth Reduction (%) 14 Days After Application SETFA
[13] = Triticum aestivum, wheat, spring (Triticum aestivum), read-out: Visual Growth Reduction (%) 14 Days After Application TRZAS
[14] = Zea mays, maize, corn (Zea mays), read-out: Visual Growth Reduction (%) 14 Days After Application ZEAMX

| Structure (SMILES) | pest or weed control at 35 g/ha [1, 3] | pest or weed control at 70 g/ha [1, 3] | pest or weed control at 140 g/ha [1, 3] | pest or weed control at 35 g/ha [1, 4] | pest or weed control at 70 g/ha [1, 4] | pest or weed control at 140 g/ha [1, 4] | pest or weed control at 35 g/ha [1, 5] | pest or weed control at 70 g/ha [1, 5] | pest or weed control at 140 g/ha [1, 5] | pest or weed control at 35 g/ha [1, 6] | pest or weed control at 70 g/ha [1, 6] | pest or weed control at 140 g/ha [1, 6] | pest or weed control at 35 g/ha [1, 7] | pest or weed control at 70 g/ha [1, 7] | pest or weed control at 140 g/ha [1, 7] | pest or weed control at 35 g/ha [1, 8] | pest or weed control at 70 g/ha [1, 8] | pest or weed control at 140 g/ha [1, 8] | pest or weed control at 35 g/ha [2, 9] | pest or weed control at 70 g/ha [2, 9] | other results |
| --- | --- | --- | --- | --- | --- | --- | --- | --- | --- | --- | --- | --- | --- | --- | --- | --- | --- | --- | --- | --- | --- |
| Nc1c(F)c(-c2ccc3cn[nH]c3c2)nc(C(=O)O)c1Cl [Compound 4.06] | 0 to 29% | 0 to 29% | 0 to 29% | 75 to 84% | 95 to 100% | 95 to 100% | 60 to 74% | 75 to 84% | 85 to 94% | 0 to 29% | 45 to 59% | 95 to 100% | 45 to 59% | 60 to 74% | 85 to 94% | 45 to 59% | 60 to 74% | 75 to 84% | 0 to 29% | 0 to 29% | pest or weed control at 140 g/ha [2, 9]: 0 to 29%; pest or weed control at 35 g/ha [2, 10]: 0 to 29%; pest or weed control at 70 g/ha [2, 10]: 45 to 59%; pest or weed control at 140 g/ha [2, 10]: 75 to 84%; pest or weed control at 35 g/ha [2, 11]: 0 to 29%; pest or weed control at 70 g/ha [2, 11]: 0 to 29%; pest or weed control at 140 g/ha [2, 11]: 0 to 29%; pest or weed control at 35 g/ha [2, 12]: 0 to 29%; pest or weed control at 70 g/ha [2, 12]: 0 to 29%; pest or weed control at 140 g/ha [2, 12]: 45 to 59%; pest or weed control at 35 g/ha [2, 13]: 0 to 29%; pest or weed control at 70 g/ha [2, 13]: 0 to 29%; pest or weed control at 140 g/ha [2, 13]: 0 to 29%; pest or weed control at 35 g/ha [2, 14]: 0 to 29%; pest or weed control at 70 g/ha [2, 14]: 0 to 29%; pest or weed control at 140 g/ha [2, 14]: 0 to 29%; melting point: > 300 °C |
| COC(=O)c1nc(-c2ccc3c(cnn3C)c2)c(F)c(N)c1Cl [Compound 4.03] | 0 to 29% | 0 to 29% | 0 to 29% | 0 to 29% | 45 to 59% | 75 to 84% | 0 to 29% | 0 to 29% | 0 to 29% | 95 to 100% | 95 to 100% | 95 to 100% | 45 to 59% | 60 to 74% | 75 to 84% | 0 to 29% | 45 to 59% | 60 to 74% | 0 to 29% | 0 to 29% | pest or weed control at 140 g/ha [2, 9]: 0 to 29%; pest or weed control at 35 g/ha [2, 10]: 60 to 74%; pest or weed control at 70 g/ha [2, 10]: 75 to 84%; pest or weed control at 140 g/ha [2, 10]: 75 to 84%; pest or weed control at 35 g/ha [2, 11]: 0 to 29%; pest or weed control at 70 g/ha [2, 11]: 0 to 29%; pest or weed control at 140 g/ha [2, 11]: 0 to 29%; pest or weed control at 35 g/ha [2, 13]: 0 to 29%; pest or weed control at 70 g/ha [2, 13]: 0 to 29%; pest or weed control at 140 g/ha [2, 13]: 0 to 29%; pest or weed control at 35 g/ha [2, 14]: 0 to 29%; pest or weed control at 70 g/ha [2, 14]: 0 to 29%; pest or weed control at 140 g/ha [2, 14]: 0 to 29%; melting point: 156 to 159 °C |
